PubChem BioAssay AID977621 (Broad Institute, 2014)
Results filed as inconclusive are left out. The source made the active and inactive calls.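 How the source made its calls: active means Wild-type ribosome reporter drop at least double the humanized mutant ribosome reporter drop, growth loss under a set limit; inconclusive means no clear call, values can overlap the other calls; inactive means the rest.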

Tested on: E. coli wild-type GFP strain growth, fluorescence, 24 h
Experiment: wild-type E. coli growth inhibition versus H69 humanized strain – H69 mutant RFP, wild-type GFP, cherry-pick, dose response (AID 977621);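 further: wild-type GFP and H69 mutant RFP strains grown together 50/50 in each well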
[1] = E. coli mixed culture, 24 h, measured here: total growth OD600, test 2

| SMILES | AC50 | AC50 [1] |
| --- | --- | --- |
| Cc1ccc(C(=O)CSc2nnc(COc3cccc4cccnc34)o2)cc1 | > 100 µM (inactive) | 46.3 µM |
| CC(=O)NCCOc1nc(N2CCCCC2)nc(N2CCCCC2)n1 | – | > 100 µM |
| COc1ccc(OC)c(S(=O)(=O)Nc2cccc3ccc(O)cc23)c1 | – | > 100 µM |
| Cc1ccc(NC(=O)c2c(C)noc2-c2snnc2C)cc1 | > 100 µM (inactive) | – |
| COc1ccc(NC(=O)c2oc3ccccc3c2NC(=O)C2CCCO2)cc1OC (stereo unspecified) | > 100 µM (inactive) | – |
| Fc1ccc(-c2nnc(-c3ccc4ccccc4c3)o2)cc1 | > 100 µM (inactive) | > 100 µM |
| O=C(CCC(=O)N1CCN(c2ccc(F)cc2)CC1)N1CCN(c2ccc(F)cc2)CC1 | > 100 µM (inactive) | > 100 µM |
| Cc1ccc(OCC(O)CN2CCN(c3ccccn3)CC2)c(C)c1 (stereo unspecified) | > 100 µM (inactive) | 45.6 µM |
| CCN(CC)C(=O)c1ccc(COc2ccccc2Cl)o1 | – | > 100 µM |
| CCCNC(=O)c1cc(C2CCCN(S(=O)(=O)c3cccc4cccnc34)C2)on1 (stereo unspecified) | > 100 µM (inactive) | – |
| CCC(C(=O)NC1CCCC1)n1c(-c2ccnc3ccccc23)nc2ccccc21 (stereo unspecified) | – | > 100 µM |
| CC(CCc1ccccc1)NC(=O)CNC(=O)COc1ccccc1 (stereo unspecified) | – | > 100 µM |
| COc1ccc(-c2cn3c(C)c(C(=O)Nc4cccc(C)n4)sc3n2)cc1 | > 100 µM (inactive) | – |
| COc1ccc(NC(=O)Nc2cccc3c2O[C@H](CN(C)S(=O)(=O)c2ccc(Cl)cc2)[C@@H](C)CN([C@H](C)CO)C3=O)cc1 | > 100 µM (inactive) | – |
| O=[N+]([O-])c1ccc(N2CCOCC2)c2c1no[n+]2[O-] | > 100 µM (inactive) | – |
| Oc1ccc2c3c1OC1c4oc5ccccc5c4C[C@@]4(O)[C@@H](C2)N(CC2CC2)CC[C@]314 (stereo partly specified) | > 100 µM (inactive) | – |
| COc1cc(OC)cc(C(=O)Nc2ccc(S(=O)(=O)Nc3cnc4ccccc4n3)cc2)c1 | – | 33 µM |
| NC(=O)c1nsc(C(=O)N(c2ccccc2F)C(C(=O)NCc2ccc(F)cc2)c2ccc(O)cc2)c1N (stereo unspecified) | > 100 µM (inactive) | 47 µM |
| Cc1ccc(S(=O)(=O)Nc2cccc(-c3ccc(N4CCCCCC4)nn3)c2)cc1 | > 100 µM (inactive) | 28.9 µM |
| CCc1ccc2nc(N(CCCN(C)C)C(=O)c3ccc4c(c3)OCCO4)sc2c1 | > 100 µM (inactive) | – |
| C[C@@H]1CN([C@@H](C)CO)C(=O)CCCn2nncc2CO[C@H]1CN(C)C(=O)Nc1cccc(C(F)(F)F)c1 | > 100 µM (inactive) | – |
| CCCn1c(NCc2ccc3c(c2)OCO3)nc2ccccc21 | > 100 µM (inactive) | 49.9 µM |
| O=S(=O)(Nc1cccc(-c2ccc(N3CCCCCC3)nn2)c1)c1ccc(F)cc1 | > 100 µM (inactive) | – |

| SMILES | AC50 | AC50 [1] |
| --- | --- | --- |
| COc1ccccc1-c1cc2nc(NCCc3ccncc3)ccn2n1 | > 100 µM (inactive) | – |
| COc1ccc(-n2c(-c3ccc(C)cc3)nc3ccccc3c2=O)cc1 | > 100 µM (inactive) | – |
| Cc1cc(C)cc(NC(=O)c2cccc(NC(=O)c3ccco3)c2)c1 | – | 45.6 µM |
| CC(=O)Nc1ccc(S(=O)(=O)Nc2cccc(-c3nc4cc(C)ccc4o3)c2)cc1 | – | > 100 µM |
| O=C(N[C@@H](Cc1ccccc1)C(=O)OCc1ccccc1)c1nc[nH]c1C(=O)NC1CCNCC1 | > 100 µM (inactive) | – |
| O=C(COC(=O)CCC(=O)c1ccc(F)cc1)Nc1cccc(S(=O)(=O)N2CCCC2)c1 | – | > 100 µM |
| Cc1ccc(OCCn2c(=S)[nH]c3c(N)ncnc32)cc1 | > 100 µM (inactive) | 31.8 µM |
| O=C(NCCc1ccc(Cl)cc1)c1ccc2nc[nH]c2c1 | > 100 µM (inactive) | – |
| N#Cc1nc(-c2ccco2)oc1NCc1ccccc1Cl | – | 49.6 µM |
| CC(C)CC#Cc1ccc2c(c1)O[C@@H](CN(C)Cc1ccccn1)[C@H](C)CN([C@H](C)CO)S2(=O)=O | > 100 µM (inactive) | – |
| O=C(O)c1ccc(Oc2ccc([N+](=O)[O-])cc2)c([N+](=O)[O-])c1 | > 100 µM (inactive) | – |
| O=C1N[C@@H](Cc2ccccc2)COC(=O)[C@H](Cc2ccc(F)cc2)C/C=C\C[C@H]1CC(=O)N(CCO)Cc1ccccc1 | > 100 µM (inactive) | – |
| CC(C)Nc1nnc(SCC(=O)Nc2sccc2C#N)s1 | > 100 µM (inactive) | – |
| O=C(CSc1ccccc1)NCCCc1ccccc1 | – | > 100 µM |
| CC(C)=C(c1ccc(Cl)cc1)c1c(N)ncnc1N | > 100 µM (inactive) | – |
| CCC(C(=O)Nc1ccsc1C(=O)OC)c1ccccc1 (stereo unspecified) | – | 49.2 µM |
| Clc1ccccc1-c1nnc2sc(CCc3ccccc3)nn12 | > 100 µM (inactive) | 15.4 µM |
| O=C(Nc1ccn(Cc2ccc(Cl)cc2)n1)c1ccccc1 | – | > 100 µM |
| O=c1[nH]nc(SCc2ccccc2)n1C1CC2C=CC1C2 (stereo unspecified) | – | 40.6 µM |
| CCOC(=O)c1sc2nc(NC(=O)C(C)(C)C)sc2c1C | > 100 µM (inactive) | 38.9 µM |
| CCCCNc1ccc2c(c1)OC[C@@H](Cc1ccccc1)NS2(=O)=O | > 100 µM (inactive) | 32.4 µM |
| Cc1ccc(-c2cc[n+](Cc3ccccc3)cc2)cc1 | – | > 100 µM |
| Cc1ccc(C2(c3noc(CN(C)Cc4cccnc4)n3)CCCC2)cc1 | > 100 µM (inactive) | – |

| SMILES | AC50 | AC50 [1] |
| --- | --- | --- |
| Cc1cc(C)c(S(=O)(=O)NCCOc2ccccc2)c(C)c1-n1cnnn1 | > 100 µM (inactive) | – |
| O=C(NCc1cccnc1)c1ccc(COc2ccc3c(c2)CCC3)o1 | > 100 µM (inactive) | – |
| COC(=O)c1c(C)oc(C)c1S(=O)(=O)Nc1ccc(C(C)C)cc1 | > 100 µM (inactive) | 51.5 µM |
| O=C(O)c1ccc(S(=O)(=O)N(Cc2ccc(F)cc2)C2CCCCC2)cc1 | > 100 µM (inactive) | 30.2 µM |
| O=C(CC(=O)c1cccs1)c1ccncc1 | > 100 µM (inactive) | – |
| Cc1ccccc1-c1cc(C(=O)NCc2cccs2)n(CC2CC(c3cccnc3)=NO2)n1 (stereo unspecified) | > 100 µM (inactive) | > 100 µM |
| COC(=O)CN1C(=S)N(c2ccc(Cl)cc2)C(=O)C1CC(=O)Nc1ccc(F)cc1 (stereo unspecified) | > 100 µM (inactive) | > 100 µM |
| C=CCn1c(-c2sc(-c3ccccc3)nc2C)n[nH]c1=S | > 100 µM (inactive) | – |
| O=C1Nc2ccc(F)cc2C12Nc1ccccc1-c1nnc(SCc3ccccc3)nc1O2 (stereo unspecified) | > 100 µM (inactive) | – |
| O=C(C[n+]1ccn(-c2ccccc2)c1)c1ccc([N+](=O)[O-])cc1 | > 100 µM (inactive) | – |
| COc1ccccc1C1CCN(C(=O)c2cccs2)CC1 | – | > 100 µM |
| CCCCc1cc2c(cc1NC(=O)CN1CCCCC1)OCCO2 | > 100 µM (inactive) | > 100 µM |
| c1ccc(-n2c(SCc3nc(-c4cccs4)no3)nnc2-c2ccco2)cc1 | > 100 µM (inactive) | 42.5 µM |
| CCN(CC)S(=O)(=O)c1cc(NS(=O)(=O)c2cccc(Cl)c2Cl)ccc1C | > 100 µM (inactive) | 33.4 µM |
| O=C(c1ccco1)N(CCCN1CCOCC1)c1nc(-c2ccc(F)cc2)cs1 | > 100 µM (inactive) | – |
| CCOc1ccc(OCC)c(NC(=O)CSc2nc3cccnc3n2C)c1 | > 100 µM (inactive) | 36.6 µM |
| Nc1ccccc1Sc1ccc(C(F)(F)F)cc1[N+](=O)[O-] | > 100 µM (inactive) | – |
| CCOC(=O)C1CCCN(C(=O)c2csc(-c3ccc4c(c3)CCO4)n2)C1 (stereo unspecified) | > 100 µM (inactive) | – |
| CCc1cc(C(=O)N2CCCC(C(=O)c3cccc4ccccc34)C2)n(C)n1 (stereo unspecified) | – | > 100 µM |
| Cc1cc(C)c(NC(=O)C(C)c2cccc(C(=O)c3ccccc3)c2)c(C)c1 (stereo unspecified) | – | 47.2 µM |
| Cc1ccsc1C(=O)N1CCCC(C(=O)c2cc(F)ccc2F)C1 (stereo unspecified) | > 100 µM (inactive) | > 100 µM |
| CN(C)C(CNS(=O)(=O)c1cc([N+](=O)[O-])ccc1Cl)c1ccco1 (stereo unspecified) | > 100 µM (inactive) | – |
| O=C1c2ccccc2C(c2nnnn2Cc2ccccc2)N1CCc1ccc(O)cc1 (stereo unspecified) | > 100 µM (inactive) | – |

| SMILES | AC50 | AC50 [1] |
| --- | --- | --- |
| N#Cc1ccccc1CSc1nc2ccc(NC(=O)c3ccccc3C(=O)O)cc2s1 | > 100 µM (inactive) | – |
| COc1cccc(NC(=O)C(c2ccccc2)N2CCN(c3ccccn3)CC2)c1 (stereo unspecified) | – | > 100 µM |
| O=C(NCCCCc1ccccc1)c1cccc(NC(=O)C2CCCCC2)c1 | > 100 µM (inactive) | 46.8 µM |
| Cc1ccc(-c2nc3ccc(NS(=O)(=O)c4ccccc4)cc3[nH]2)o1 | > 100 µM (inactive) | – |
| COc1cccc(C(=O)N2C[C@@H]3[C@H](c4ccccc42)[C@H](CO)N3Cc2ccccc2Cl)c1 | > 100 µM (inactive) | 48.8 µM |
| Cc1cc(NCc2ccccn2)n2nc(C)c(-c3ccccc3)c2n1 | – | 49.3 µM |
| O=C(Cn1cnc2ccccc21)c1ccc(Br)cc1 | > 100 µM (inactive) | – |
| Cc1ccc(OCc2nc(C#N)c(N3CCCCC3)o2)cc1 | > 100 µM (inactive) | 42.7 µM |
| COc1ccc(OC)c(-c2csc(NC(=O)C3COc4ccccc4O3)n2)c1 (stereo unspecified) | – | > 100 µM |
| COc1ccc(CNC(=O)Cc2cn(C)c3ccccc23)c(OC)c1 | – | > 100 µM |
| COc1ccc(NC(=O)c2sccc2-n2cccc2)cc1 | > 100 µM (inactive) | – |
| CCOC(=O)c1cc(-c2ccc(OC)cc2)n[nH]1 | – | > 100 µM |
| C[C@@H]1CN([C@H](C)CO)C(=O)c2cccc(NC(=O)Nc3ccc4c(c3)OCO4)c2O[C@@H]1CN(C)C(=O)Nc1ccc2c(c1)OCO2 | – | > 100 µM |
| Cc1ccc(C(=O)NCC(=O)OCC(=O)Nc2cccc(S(=O)(=O)N3CCCC3)c2)cc1C | – | > 100 µM |
| Cc1cccc(CN2C(=O)c3ccccc3Sc3ccc(C(=O)O)cc32)c1 | > 100 µM (inactive) | – |
| COc1ccccc1N(C1=NCCCS1)S(=O)(=O)c1ccc(C(C)(C)C)cc1 | > 100 µM (inactive) | – |
| Nc1ccccc1Sc1c[nH]c2ccccc12 | – | > 100 µM |
| C[C@@H]1CN([C@H](C)CO)C(=O)c2cccc(NC(=O)c3ccncc3)c2O[C@@H]1CN(C)S(=O)(=O)c1ccc(Cl)cc1 | > 100 µM (inactive) | > 100 µM |
| Cc1nn(-c2ccccc2)c(C)c1CN(C)C(=O)c1ccc(S(=O)(=O)NCc2ccco2)cc1 | > 100 µM (inactive) | – |
| COc1ccc(Cl)cc1NC(=O)C1Cc2ccccc2CN1S(C)(=O)=O (stereo unspecified) | > 100 µM (inactive) | – |
| CCCCSc1nc(N)c(C#N)c(-c2cccs2)c1C#N | > 100 µM (inactive) | – |
| CCn1nnc(NC(=O)c2ccc([N+](=O)[O-])o2)n1 | > 100 µM (inactive) | – |
| C[C@@H]1NS(=O)(=O)c2c(F)cccc2O[C@@H]1c1ccccc1 | > 100 µM (inactive) | – |
